Test results from US5639751A, “N-acyl-2,3-benzodiazepine derivatives for treating acute and chronic neurodegenerative disorders” (priority 1990, dated 1997).
Structures can show the parent of a compound that is named as a salt. Where two headings read alike, the source gives them in different places.

Tests used:
male CFLP mice [1] = experiment: Anticonvulsive effect in mice, electroshock test; format: in vivo; conditions: Mus musculus, po, read-out: ED50 p.o., ES (electroshock)
Description: (§1) The anticonvulsive effect of the compounds of the formula (I) was measured by using the electroshock test [J. Pharmacol. Exp. Ther. 106, 319 (1952)], furthermore by using various chemical agents such as pentetrazole [J. Pharmacol. Exp. Ther. 108, 168 (1953)], strychnine [J. Pharmacol. Exp. Ther. 129, 75 (1960)], bemegride, nicotine and 4-aminopyridine. The test compounds were orally administered in 3 doses, to 10 male CFLP mice per dose.

male CFLP mice [2] = experiment: Anticonvulsive effect in mice, pentetrazole; format: in vivo; conditions: Mus musculus, po, read-out: ED50 p.o., Pentetrazole
Description: as §1

CFLP mice = experiment: Inclined screen test in mice; format: in vivo; conditions: Mus musculus, ip, read-out: ED50 i.p., inclined screen test
Source text: In Randall's inclined screen test [J. Pharmacol. Exp. Ther. 129, 163 (1960)] the compounds were applied in 3 i.p. doses to 10 CFLP mice per dose.

mice [3] = experiment: Rotarod test in mice; format: in vivo; conditions: Mus musculus, ip, read-out: ED50 i.p., rotarod test
Source text: The rotarod test was used to measure muscular tone and motor co-ordination [J. Am. Pharm. Assoc. 46, 208 (1957)].

male CFLP mice [4] = experiment: Anticonvulsive effect in mice, strychnine; format: in vivo; conditions: Mus musculus, po, read-out: ED50 p.o., Strychnine
Description: as §1

male CFLP mice [5] = experiment: Anticonvulsive effect in mice, bemegride; format: in vivo; conditions: Mus musculus, po, read-out: ED50 p.o., Bemegride
Description: as §1

male CFLP mice [6] = experiment: Anticonvulsive effect in mice, nicotine; format: in vivo; conditions: Mus musculus, po
Description: as §1

cats = experiment: Effects on spinal root reflex potentials in spinalized and immobilized cats; format: in vivo; conditions: for minimal effective dose: Felis catus
Description: The effect of compound of Example 15(16) on the spinal root potentials in cats was tested in spinalized and immobilized animals [Neuropharmacology 21, 161 (1989)].

male CFLP mice [7] = experiment: Anticonvulsive effect in mice, 4-aminopyridine; format: in vivo; conditions: Mus musculus, po, read-out: ED50 p.o., 4-AP (4-aminopyridine)
Description: as §1

Acute toxicity in mice = conditions: mouse, in vivo
Description: The cause of mortality was respiratory insufficiency developing within 1 to 2 hours after i.p. administration and within 10 to 20 hours after oral application.

mice [8] = experiment: Protection against methamphetamine-induced dopaminergic neurotoxicity, in mice; format: in vivo; conditions: METH 2×20 mg/kg i.p., Example 128 3×5 mg/kg i.p., MK-801 3×2.5 mg/kg i.p.
Description: High doses of methamphetamine (2×20 mg/kg i.p.) decrease the striatal level of dopamine, which can be prevented by glutamate antagonists, e.g. the NMDA-antagonist MK-801 [Science 243, 398 (1989)].

Structure (SMILES)	ED50 (male CFLP mice [1]; mice, p.o.)	ED50 (male CFLP mice [2]; mice, p.o.)	ED50 (male CFLP mice [4])	ED50 (male CFLP mice [6])	ED50 (male CFLP mice [5]; mice, p.o.)	ED50 (male CFLP mice [7]; mice, p.o.)	LD50 (Acute toxicity in mice; ip, read-out: LD50 i.p.)	LD50 (Acute toxicity in mice; po, read-out: LD50 p.o.)	ED50 (CFLP mice; mice, i.p.)	ED50 (mice [3]; mice, i.p.)	further results
CC1=NN=C(c2ccc(NC(=O)C(C)N)cc2)c2cc3c(cc2C1)OCO3 (racemic) [Example 69]	57 mg/kg	> 100 mg/kg	–	–	–	–	–	–	–	–	–
NCC(CC(=O)O)c1ccc(Cl)cc1 (stereo not drawn) [Baclofen, β-(aminomethyl)-4-chlorobenzeneprioionic acid, reference compound]	–	–	–	–	–	–	–	–	–	–	ED50 (CFLP mice): 26 mg/kg; ED50 (mice [3]): 12.5 mg/kg
CN1C(=O)CN=C(c2ccccc2)c2cc(Cl)ccc21 [Diazepam, 7-chloro-1,3-dihydro-1-methyl-5-phenyl-2H-1,4-benzodiazepin-2-one, reference compound]	–	–	15 mg/kg	1.85 mg/kg	–	–	–	–	–	–	ED50 (male CFLP mice [1]): 18 mg/kg; ED50 (male CFLP mice [2]): 0.86 mg/kg; ED50 (male CFLP mice [5]): 0.58 mg/kg; Effect on both dorsal root responses (cats): markedly potentiated; minimal effective dose (cats; read-out: Minimal effective dose, inhibition of polysynaptic reflexes): < 0.1 mg/kg; minimal effective dose (cats; read-out: Minimal effective doses, potentiation of dorsal root responses): ~0.1 mg/kg; Maximal inhibition of polysynaptic reflexes (cats; partial inhibition): ≤ 50%; Effect on monosynaptic reflexes (cats; up to 3.2 mg/kg): did not affect
CCC(=O)N1N=C(c2ccc(N)cc2)c2cc3c(cc2CC1C)OCO3 (stereo not drawn) [Example 18]	–	–	> 100 mg/kg	16 mg/kg	–	–	–	–	–	–	ED50 (male CFLP mice [1]): 17.5 mg/kg; ED50 (male CFLP mice [2]): 29 mg/kg; ED50 (male CFLP mice [5]): 20 mg/kg; ED50 (male CFLP mice [7]): 16 mg/kg; ED50 (CFLP mice): 31 mg/kg; ED50 (mice [3]): 7.5 mg/kg
CC(=O)N(C(C)=O)c1ccc(C2=NN(C(C)=O)C(C)Cc3cc4c(cc32)OCO4)cc1 (stereo not drawn) [Example 39, 1-(4-Diacetylaminophenyl)-3-acetyl-4-methyl-7,8-methylenedioxy-3,4-dihydro-5H-2,3-benzodiazepine]	53 mg/kg	170 mg/kg	–	–	> 200 mg/kg	29 mg/kg	271 mg/kg	> 600 mg/kg	–	–	–
CC(=O)Nc1ccc(C2=NN(C(C)=O)C(C)Cc3cc4c(cc32)OCO4)cc1 (stereo not drawn) [Example 42, 1-(4-Acetylaminophenyl)-3-acetyl-4-methyl-7,8-methylenedioxy-3,4-dihydro-5H-2,3-benzodiazepine]	24 mg/kg	33 mg/kg	28 mg/kg	155 mg/kg	24 mg/kg	34 mg/kg	120 mg/kg	185 mg/kg	42 mg/kg	8.1 mg/kg	–
CCC(=O)Nc1ccc(C2=NN(C(=O)CC)C(C)Cc3cc4c(cc32)OCO4)cc1 (stereo not drawn) [Example 45, 1-(4-Propionylaminophenyl)-3-propionyl-4-methyl-7,8-methylenedioxy-3,4-dihydro-5H-2,3-benzodiazepine]	27 mg/kg	44 mg/kg	> 100 mg/kg	23 mg/kg	51 mg/kg	34 mg/kg	98.4 mg/kg	206 mg/kg	35 mg/kg	10 mg/kg	–
CC(=O)N1N=C(c2ccc(NC=O)cc2)c2cc3c(cc2CC1C)OCO3 (stereo not drawn) [Example 46]	20 mg/kg	57 mg/kg	> 100 mg/kg	80 mg/kg	56 mg/kg	17 mg/kg	173 mg/kg	162 mg/kg	–	–	–
CCC(=O)Nc1ccc(C2=NN(C(C)=O)C(C)Cc3cc4c(cc32)OCO4)cc1 (stereo not drawn) [Example 48]	10.5 mg/kg	30.5 mg/kg	> 100 mg/kg	25 mg/kg	33 mg/kg	20 mg/kg	103 mg/kg	149 mg/kg	20.5 mg/kg	7.2 mg/kg	–
CCC(=O)N1N=C(c2ccc(NC(C)=O)cc2)c2cc3c(cc2CC1C)OCO3 (stereo not drawn) [Example 49]	25 mg/kg	53 mg/kg	> 100 mg/kg	45 mg/kg	43 mg/kg	28 mg/kg	–	–	36 mg/kg	9.4 mg/kg	–
COCC(=O)Nc1ccc(C2=NN(C(C)=O)C(C)Cc3cc4c(cc32)OCO4)cc1 (stereo not drawn) [Example 52]	17.5 mg/kg	36 mg/kg	> 100 mg/kg	13.5 mg/kg	29 mg/kg	24 mg/kg	117 mg/kg	188 mg/kg	21 mg/kg	4.8 mg/kg	–
CCC(=O)Nc1ccc(C2=NN(C=O)C(C)Cc3cc4c(cc32)OCO4)cc1 (stereo not drawn) [Example 60]	24 mg/kg	62 mg/kg	–	–	–	–	–	–	–	–	–
CC(=O)N1N=C(c2ccc(NC(=O)C(F)(F)F)cc2)c2cc3c(cc2CC1C)OCO3 (stereo not drawn) [Example 62]	12.5 mg/kg	56 mg/kg	> 100 mg/kg	31 mg/kg	36 mg/kg	29 mg/kg	136 mg/kg	160 mg/kg	25.5 mg/kg	7.8 mg/kg	–
CC1=NN=C(c2ccc(NC(=O)CN)cc2)c2cc3c(cc2C1)OCO3 [Example 66, 1-(4-Glycylaminophenyl)-4-methyl-7,8-methylenedioxy-5H-2,3-benzodiazepine]	42 mg/kg	135 mg/kg	105 mg/kg	105 mg/kg	> 100 mg/kg	84 mg/kg	205 mg/kg	281 mg/kg	52 mg/kg	18.5 mg/kg	–
CC(=O)N1N=C(c2ccc(NC(=O)CN)cc2)c2cc3c(cc2CC1C)OCO3 (stereo not drawn) [Example 73]	16 mg/kg	62 mg/kg	> 100 mg/kg	53 mg/kg	49 mg/kg	28 mg/kg	143 mg/kg	168 mg/kg	27 mg/kg	6.3 mg/kg	–
CC(=O)N1N=C(c2ccc(NC(=O)CN(C)C)cc2)c2cc3c(cc2CC1C)OCO3 (stereo not drawn) [Example 107, 1-[4-(N,N-dimethylglycylamino)phenyl]-3-acetyl-4-methyl-7,8-methylenedioxy-3,4-dihydro-5H-2,3-benzodiazepine]	23.5 mg/kg	120 mg/kg	22.8 mg/kg	34.2 mg/kg	25.4 mg/kg	36.8 mg/kg	–	–	–	–	–
CCN(CC)CC(=O)Nc1ccc(C2=NN(C(C)=O)C(C)Cc3cc4c(cc32)OCO4)cc1 (stereo not drawn) [Example 108, 1-[4-(N,N-diethylglycylamino)phenyl]-3-acetyl-4-methyl-7,8-methylenedioxy-3,4-dihydro-5H-2,3-benzodiazepine]	27 mg/kg	> 100 mg/kg	–	–	–	–	–	–	–	–	–
CC(=O)N1N=C(c2ccc(NC(=O)CN3CCCC3)cc2)c2cc3c(cc2CC1C)OCO3 (stereo not drawn) [Example 109, 1-[4-(1-Pyrrolidinoacetylamino)phenyl]-3-acetyl-4-methyl-7,8-methylenedioxy-3,4-dihydro-5H-2,3-benzodiazepine hydrogen fumarate]	21 mg/kg	> 100 mg/kg	–	–	–	–	–	–	–	–	–
CNC(=O)N1N=C(c2ccc(NC(=O)CN)cc2)c2cc3c(cc2CC1C)OCO3 (stereo not drawn) [Example 115, 1-(4-Glycylaminophenyl)-3-methylcarbamoyl-4-methyl-7,8-methylenedioxy-3,4-dihydro-5H-2,3-benzodiazepine]	17.1 mg/kg	23.9 mg/kg	–	–	–	–	90.7 mg/kg	200 to 250 mg/kg	16.1 mg/kg	7.3 mg/kg	–
C[C@]12N[C@H](Cc3ccccc31)c1ccccc12 [MK-801, (+)-10,11-dihydro-5-methyl-5H-dibenzo[a,d]cyclohepten-5,10-imine (Z)-2-butene-dioate, reference compound]	–	–	–	–	–	–	–	–	–	–	(DOPAC + HVA)/DA, % (mice [8]; % of saline group): 132%; DA, % (mice [8]; % of saline group): 66%; (DOPAC + HVA)/DA, mean ± SE (mice [8]; striatal dopamine turnover): 0.33 ± 0.06; DA, μg/g tissue, mean ± SE (mice [8]; striatal dopamine): 10.01 ± 1.10 μg/g tissue
O=C1NC(=O)C(c2ccccc2)(c2ccccc2)N1 [Phenytoin, 5,5-diphenyl-2,4-imidazolidinedione, reference compound]	10 mg/kg	> 400 mg/kg	160 mg/kg	12 mg/kg	> 200 mg/kg	–	–	–	–	–	–
